Data published in ChEMBL document CHEMBL2157977, “The antitumor agent doxorubicin binds to Fanconi anemia group F protein” (Bioorg Med Chem, 2012).
Calls of active or inactive are those of the source. The rule behind the calls is not given here.

How the values were obtained:
[1] = molecular target: Fanconi anemia group D2 protein (Homo sapiens) (UniProt Q9BXW9); test: Inhibition of CDDP-induced FANCD2 monoubiquitination in human HeLa cells at 9 uM after 18 hrs by Western blot analysis; format: cell-based
[2] = molecular target: T1, Fanconi anemia group F protein (Homo sapiens) (UniProt Q9NPI8); test: Binding affinity to human thymus flag-tagged full-length FANCF expressed in HEK293T cells after 10 mins by pull-down assay; format: cell-based; conditions: HEK-293T
T1 sequence (whole entry): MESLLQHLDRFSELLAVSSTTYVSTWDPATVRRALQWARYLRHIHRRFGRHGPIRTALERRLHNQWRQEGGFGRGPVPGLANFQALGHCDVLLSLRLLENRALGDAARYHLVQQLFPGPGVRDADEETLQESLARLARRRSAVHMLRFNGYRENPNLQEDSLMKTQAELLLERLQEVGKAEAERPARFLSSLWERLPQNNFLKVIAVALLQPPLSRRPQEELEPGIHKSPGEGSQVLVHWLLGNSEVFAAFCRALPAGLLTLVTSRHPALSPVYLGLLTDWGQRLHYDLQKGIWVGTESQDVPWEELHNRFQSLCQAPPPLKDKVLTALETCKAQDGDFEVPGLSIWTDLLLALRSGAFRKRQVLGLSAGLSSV

Fanconi anemia group D2 protein (Homo sapiens), sequence (Q9BXW9 whole entry): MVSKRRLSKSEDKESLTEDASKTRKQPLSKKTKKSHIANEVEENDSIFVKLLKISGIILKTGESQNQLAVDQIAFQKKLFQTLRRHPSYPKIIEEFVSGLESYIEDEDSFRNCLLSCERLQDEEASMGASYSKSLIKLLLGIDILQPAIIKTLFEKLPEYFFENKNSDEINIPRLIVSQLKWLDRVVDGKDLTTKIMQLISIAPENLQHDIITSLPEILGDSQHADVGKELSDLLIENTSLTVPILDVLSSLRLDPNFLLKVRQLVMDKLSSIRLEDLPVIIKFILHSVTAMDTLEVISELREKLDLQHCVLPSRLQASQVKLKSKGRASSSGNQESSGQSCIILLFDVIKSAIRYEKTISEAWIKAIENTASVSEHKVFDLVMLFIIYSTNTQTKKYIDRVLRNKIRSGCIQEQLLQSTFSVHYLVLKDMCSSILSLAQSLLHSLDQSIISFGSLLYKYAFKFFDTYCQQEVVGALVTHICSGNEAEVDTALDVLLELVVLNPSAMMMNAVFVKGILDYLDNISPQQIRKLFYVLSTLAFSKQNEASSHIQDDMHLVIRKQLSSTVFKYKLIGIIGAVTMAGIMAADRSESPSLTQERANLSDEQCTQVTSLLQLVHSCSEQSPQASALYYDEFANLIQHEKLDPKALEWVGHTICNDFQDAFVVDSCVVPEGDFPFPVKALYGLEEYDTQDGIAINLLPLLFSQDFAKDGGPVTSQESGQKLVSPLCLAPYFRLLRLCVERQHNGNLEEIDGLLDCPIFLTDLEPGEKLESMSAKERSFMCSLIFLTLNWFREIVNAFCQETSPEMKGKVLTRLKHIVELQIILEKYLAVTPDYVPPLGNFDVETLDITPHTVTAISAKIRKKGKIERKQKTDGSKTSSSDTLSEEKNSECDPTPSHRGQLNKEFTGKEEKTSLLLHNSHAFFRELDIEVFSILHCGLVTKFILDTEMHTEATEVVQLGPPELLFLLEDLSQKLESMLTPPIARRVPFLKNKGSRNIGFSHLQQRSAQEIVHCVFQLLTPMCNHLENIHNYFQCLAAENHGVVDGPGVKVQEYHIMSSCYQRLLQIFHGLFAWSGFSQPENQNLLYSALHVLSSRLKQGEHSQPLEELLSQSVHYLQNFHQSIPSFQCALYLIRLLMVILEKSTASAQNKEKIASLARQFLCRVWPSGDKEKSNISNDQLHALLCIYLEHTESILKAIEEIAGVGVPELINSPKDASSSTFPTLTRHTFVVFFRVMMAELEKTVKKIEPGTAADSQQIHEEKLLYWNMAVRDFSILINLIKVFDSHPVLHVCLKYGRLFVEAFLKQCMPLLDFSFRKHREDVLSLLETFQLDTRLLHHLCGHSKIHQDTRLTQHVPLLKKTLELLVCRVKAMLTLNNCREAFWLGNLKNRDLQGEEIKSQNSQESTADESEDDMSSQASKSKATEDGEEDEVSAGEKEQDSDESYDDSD

Row | inhibition [1] | Activity [2] | SMILES
1 | Active | – | COc1cccc2c1C(=O)c1c(O)c3c(c(O)c1C2=O)C[C@@](O)(C(=O)CO)C[C@@H]3O[C@H]1C[C@H](N)[C@H](O)[C@H](C)O1
2 | – | Active | COc1cccc2c1C(=O)c1c(O)c3c(c(O)c1C2=O)C[C@@](O)(C(=O)CO)C[C@@H]3O[C@H]1C[C@H](NC(=O)CCCCCNC(=O)CCCC[C@@H]2SC[C@@H]3NC(=O)N[C@@H]32)[C@H](O)[C@H](C)O1
